Test results published in ChEMBL document CHEMBL1781983, “Hop (Humulus lupulus)-derived bitter acids as multipotent bioactive compounds” (J Nat Prod, 2009).

Columns and labels:
Chorioallantoic membrane = test: Inhibition of angiogenesis in chick embryo chorioallantoic membranes; type: functional; conditions: Gallus gallus
[1] = Antiangiogenic activity against bFGF-indeced mouse KOP2.16 cells assessed as reduction in cell growth at 10 uM; type: functional
Mus musculus [2] = test: Antiinflammatory activity in mouse assessed as inhibition of TPA-induced ear edema measured per ear; type: functional
Osteoclast = test: Inhibition of osteoporotic lesion formation in ICR mouse osteoclasts bone cells using ivory pieces after 2 days by pit formation assay; type: functional, cell-based; conditions: 48 h
[3] = Antioxidant activity in human RBC assessed as inhibition of hydrogen peroxide-induced hemolysis after 3 hrs; type: functional, cell-based; conditions: erythrocyte
[4] = tested on: Radical scavenging activity; test: Antioxidant activity assessed as DPPH radical scavenging activity; type: functional
[5] = Antioxidant activity assessed as inhibition of lipid peroxidation; type: functional
U-937 = test: Antiproliferative activity against human U937 cells
[6] = target: T1, Prostaglandin G/H synthase 2 (Mus musculus, UniProt Q05769); test: Inhibition of COX2-mediated PGE2 production in TNF-alpha-induced mouse MC3T3-E1 cells
T1 sequence (Q05769 whole entry): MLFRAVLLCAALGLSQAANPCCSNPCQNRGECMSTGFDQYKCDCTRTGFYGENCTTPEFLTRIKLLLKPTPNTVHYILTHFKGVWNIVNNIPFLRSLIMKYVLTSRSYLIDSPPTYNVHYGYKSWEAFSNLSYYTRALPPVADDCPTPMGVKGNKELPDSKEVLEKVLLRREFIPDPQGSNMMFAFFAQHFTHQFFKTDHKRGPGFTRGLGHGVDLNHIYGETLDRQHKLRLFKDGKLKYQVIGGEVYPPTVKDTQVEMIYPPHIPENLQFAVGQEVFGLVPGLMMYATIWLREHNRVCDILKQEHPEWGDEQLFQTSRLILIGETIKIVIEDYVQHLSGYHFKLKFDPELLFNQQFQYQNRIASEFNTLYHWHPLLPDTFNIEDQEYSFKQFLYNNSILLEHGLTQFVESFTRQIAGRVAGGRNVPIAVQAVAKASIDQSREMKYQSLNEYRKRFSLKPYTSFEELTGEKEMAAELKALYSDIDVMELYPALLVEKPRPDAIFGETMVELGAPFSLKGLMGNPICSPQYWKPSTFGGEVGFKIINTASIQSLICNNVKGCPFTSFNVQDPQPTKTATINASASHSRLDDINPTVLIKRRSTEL

Mus musculus [7] = test: Antiangiogenic activity in mouse at 0.01%, po for 21 days; type: functional

Structure (SMILES) | ED50 (Chorioallantoic membrane) [µg] | inhibition at 10 µM [1] [%] | ID50 (Mus musculus [2]) [mg] | IC50 (Osteoclast) [µM] | IC50 [3] [µM] | IC50 [4] [µM] | IC50 [5] [µM] | IC50 (U-937) [µM] | IC50 [6] [µM] | inhibition (INH) (Mus musculus [7]) [%]
CC(C)=CCC1C(=O)C(C(=O)CC(C)C)=C(O)C(O)(CC=C(C)C)C1=O (centres undefined) [HUMULONE] | 1.5 | 20 | 0.2 | 0.0059 | 28 | 32 | 7.9 | 3.4 | 0.03 | 
CC(C)=CCC1=C(O)C(C(=O)CC(C)C)=C(O)C(CC=C(C)C)(CC=C(C)C)C1=O [LUPULONE] |  |  |  |  |  | 25 | 39 |  |  | 50
COc1ccc2c(c1)c(CC(=O)O)c(C)n2C(=O)c1ccc(Cl)cc1 [INDOMETHACIN] |  |  | 0.3 |  |  |  |  |  |  | 
C[C@]12CCC(=O)C=C1CC[C@@H]1[C@@H]2[C@@H](O)C[C@@]2(C)[C@H]1CC[C@]2(O)C(=O)CO [HYDROCORTISONE] |  |  | 0.03 |  |  |  |  |  |  | 
